Reference: patent US20250368623A1, “PYRIDAZINONE-DERIVED COMPOUNDS FOR THE MODULATION OF MYC AND FOR MEDICAL USES” (GENETIC INTELLIGENCE, INC, priority 2022, published 2025)
Where two headings read alike, the source gives them in different places.

Legend:
[1] = Plasma concentration of test compound in xenograft mice; assay type: in vivo, mouse; settings: for concentration at 8 h: mouse, plasma, oral, tumor bearing mice, read-out: Test compound concentrations in plasma 8 h after last dose, Mean ± SD
Protocol: (§1) The in vivo efficacy of test compounds (e.g., 6-(2,4-dimethylthiazol-5-yl)-2-((1-(pyrido[2,3-d]pyrimidin-4-yl)piperidin-4-yl)methyl)pyridazin-3(2H)-one) on cancer cells is determined using a mouse xenograft model of TNBC (MDA-MB-231). 5×10^6 MDA-MB-231 cells (in 0.2 ml of FBS-free medium containing 50% Matrigel) are injected into the subcutaneous tissue of each mouse. Treatment is initiated (Day 0) when the average tumor volume reaches 100 mm^3. Tumor bearing mice are treated with vehicle and different doses of test compound (15 mg/kg, 35 mg/kg, 50 mg/kg, and 100 mg/kg) orally, once daily, for 3 weeks. Tumor volumes (mm^3) are measured post-implantation of cells once every 2-3 days throughout the study. At the end of the treatment period, a portion of the tumor tissue is excised and homogenized to analyze the levels of MYC biomarker using ELISA. Blood samples are collected from mice treated with test compound 8 hours after the final dose.

MYC = MYC biomarker in tumor homogenate by ELISA, xenograft mice; assay type: in vivo, mouse; settings: for MYC protein levels in tumor homogenate, Mean ± SD: ELISA, vehicle control 41.93 ± 5.38
Protocol: as §1

[2] = Body weight and clinical signs in the mouse xenograft study; assay type: in vivo; settings: 15-100 mg/kg orally once daily for 3 weeks, throughout the study
Protocol: as §1

MDA-MB-231 [3] = test: Mouse xenograft model of TNBC (MDA-MB-231), tumor volume and histopathology; assay type: in vivo
Protocol: as §1

[4] = Body weight and clinical signs in the mouse hollow fiber study; assay type: in vivo; settings: mice, 50 mg/kg orally once daily for 5 days
Protocol: The in vivo efficacy of test compounds (e.g., 6-(2,4-dimethylthiazol-5-yl)-2-((1-(pyrido[2,3-d]pyrimidin-4-yl)piperidin-4-yl)methyl)pyridazin-3(2H)-one) on cancer cells is determined using the mouse hollow fiber model established at the National Cancer Institute (NCI). Triple negative breast cancer (TNBC) (MDA-MB-231), pancreatic cancer (Mia-PaCa-2), and liver cancer (HepG2) cells are added to differently colored hollow fibers (KrosoFlo@Implant membrane, Green: Lot No.: 20051617, Blue: Lot No.: 20008858, White: Lot No.: 20051615) and sealed at both ends. Three hollow fibers each containing a different cancer line are surgically implanted subcutaneously into both the left and right flanks of mice (total of six hollow fibers per mouse). Drug treatment is initiated on Day 0, three days post implantation of fibers. Each treatment group has 2 mice (4 hollow fibers per cancer type): Group 1: Vehicle control; Group 2: Gemcitabine control dosed intraperitoneally (i.p.) at 50 mg/kg once every three days; Group 3: Test compound dosed orally at 50 mg/kg once daily for five days. […] Mean % net cell growth is calculated using the formula [(mean OD(day5)−mean OD(day0))/(mean OD(day0))×100%]. Mean % inhibition of cell growth due to treatment is calculated relative to the mean % net cell growth of the Day 5 vehicle control for the particular cancer line. […]

MDA-MB-231 [5] = test: Mouse hollow fiber model, TNBC (MDA-MB-231); assay type: in vivo; settings: TNBC MDA-MB-231 hollow fibers s.c. in mice; 50 mg/kg orally once daily for five days; modified MTT; vs Day 5 vehicle
Protocol: (§2) The in vivo efficacy of test compounds (e.g., 6-(2,4-dimethylthiazol-5-yl)-2-((1-(pyrido[2,3-d]pyrimidin-4-yl)piperidin-4-yl)methyl)pyridazin-3(2H)-one) on cancer cells is determined using the mouse hollow fiber model established at the National Cancer Institute (NCI). Triple negative breast cancer (TNBC) (MDA-MB-231), pancreatic cancer (Mia-PaCa-2), and liver cancer (HepG2) cells are added to differently colored hollow fibers (KrosoFlo@Implant membrane, Green: Lot No.: 20051617, Blue: Lot No.: 20008858, White: Lot No.: 20051615) and sealed at both ends. Three hollow fibers each containing a different cancer line are surgically implanted subcutaneously into both the left and right flanks of mice (total of six hollow fibers per mouse). Drug treatment is initiated on Day 0, three days post implantation of fibers. Each treatment group has 2 mice (4 hollow fibers per cancer type): Group 1: Vehicle control; Group 2: Gemcitabine control dosed intraperitoneally (i.p.) at 50 mg/kg once every three days; Group 3: Test compound dosed orally at 50 mg/kg once daily for five days. […] Mean % net cell growth is calculated using the formula [(mean OD(day5)−mean OD(day0))/(mean OD(day0))×100%]. Mean % inhibition of cell growth due to treatment is calculated relative to the mean % net cell growth of the Day 5 vehicle control for the particular cancer line.

HepG2 = test: Mouse hollow fiber model, liver cancer (HepG2); assay type: in vivo; settings: liver cancer HepG2 hollow fibers s.c. in mice; 50 mg/kg orally once daily for five days; modified MTT; vs Day 5 vehicle
Protocol: as §2

Mia-PaCa-2 = test: Mouse hollow fiber model, pancreatic cancer (Mia-PaCa-2); assay type: in vivo; settings: pancreatic cancer Mia-PaCa-2 hollow fibers s.c. in mice; 50 mg/kg orally once daily for five days; modified MTT; vs Day 5 vehicle
Protocol: as §2

[6] = 15-100 mg/kg orally once daily for 3 weeks
[7] = 15 mg/kg orally once daily for 3 weeks
[8] = 35 mg/kg orally once daily for 3 weeks
[9] = 50 mg/kg orally once daily for 3 weeks
[10] = 100 mg/kg orally once daily for 3 weeks

Structure (SMILES): Cc1nc(C)c(-c2ccc(=O)n(CC3CCN(c4ncnc5ncccc45)CC3)n2)s1 [test compound, 6-(2,4-dimethylthiazol-5-yl)-2-((1-(pyrido[2,3-d]pyrimidin-4-yl)piperidin-4-yl)methyl)pyridazin-3(2H)-one]
- concentrations of test compound in the plasma, trend with dose [1, 6]: dose-dependent increases
- concentration at 8 h [1, 7]: 10.3 ± 1.7 ng/mL
- concentration at 8 h [1, 8]: 42.6 ± 29.1 ng/mL
- concentration at 8 h [1, 9]: 59.4 ± 21.9 ng/mL
- concentration at 8 h [1, 10]: 230 ± 111 ng/mL
- MYC protein levels in tumor homogenate, Mean ± SD (MYC; [7]): 35.70 ± 2.45 ng/mg tumor homogenate
- MYC protein levels in tumor homogenate, Mean ± SD (MYC; [8]): 29.55 ± 2.93 ng/mg tumor homogenate
- MYC protein levels in tumor homogenate, Mean ± SD (MYC; [9]): 29.11 ± 4.66 ng/mg tumor homogenate
- MYC protein levels in tumor homogenate, Mean ± SD (MYC; [10]): 23.53 ± 4.28 ng/mg tumor homogenate
- MYC biomarker levels in the tumor, trend with dose (MYC; [6]): dose-dependent decreases
- Body weight and clinical signs of animals [2]: apparently normal
- Tumor volume, Mean (MDA-MB-231 [3]; 15 mg/kg orally once daily, Day 0): 93 mm^3
- Tumor volume, Mean (MDA-MB-231 [3]; 15 mg/kg orally once daily, Day 2): 137 mm^3
- Tumor volume, Mean (MDA-MB-231 [3]; 15 mg/kg orally once daily, Day 5): 212 mm^3
- Tumor volume, Mean (MDA-MB-231 [3]; 15 mg/kg orally once daily, Day 8): 330 mm^3
- Tumor volume, Mean (MDA-MB-231 [3]; 15 mg/kg orally once daily, Day 10): 435 mm^3
- Tumor volume, Mean (MDA-MB-231 [3]; 15 mg/kg orally once daily, Day 12): 534 mm^3
- Tumor volume, Mean (MDA-MB-231 [3]; 15 mg/kg orally once daily, Day 14): 749 mm^3
- Tumor volume, Mean (MDA-MB-231 [3]; 15 mg/kg orally once daily, Day 16): 921 mm^3
- Tumor volume, Mean (MDA-MB-231 [3]; 15 mg/kg orally once daily, Day 19): 1157 mm^3
- Tumor volume, Mean (MDA-MB-231 [3]; 15 mg/kg orally once daily, Day 21): 1494 mm^3
- Tumor volume, Mean (MDA-MB-231 [3]; 35 mg/kg orally once daily, Day 0): 92 mm^3
- Tumor volume, Mean (MDA-MB-231 [3]; 35 mg/kg orally once daily, Day 2): 129 mm^3
- Tumor volume, Mean (MDA-MB-231 [3]; 35 mg/kg orally once daily, Day 5): 191 mm^3
- Tumor volume, Mean (MDA-MB-231 [3]; 35 mg/kg orally once daily, Day 8): 307 mm^3
- Tumor volume, Mean (MDA-MB-231 [3]; 35 mg/kg orally once daily, Day 10): 390 mm^3
- Tumor volume, Mean (MDA-MB-231 [3]; 35 mg/kg orally once daily, Day 12): 485 mm^3
- Tumor volume, Mean (MDA-MB-231 [3]; 35 mg/kg orally once daily, Day 14): 739 mm^3
- Tumor volume, Mean (MDA-MB-231 [3]; 35 mg/kg orally once daily, Day 16): 897 mm^3
- Tumor volume, Mean (MDA-MB-231 [3]; 35 mg/kg orally once daily, Day 19): 1101 mm^3
- Tumor volume, Mean (MDA-MB-231 [3]; 35 mg/kg orally once daily, Day 21): 1459 mm^3
- Tumor volume, Mean (MDA-MB-231 [3]; 50 mg/kg orally once daily, Day 0): 94 mm^3
- Tumor volume, Mean (MDA-MB-231 [3]; 50 mg/kg orally once daily, Day 2): 123 mm^3
- Tumor volume, Mean (MDA-MB-231 [3]; 50 mg/kg orally once daily, Day 5): 191 mm^3
- Tumor volume, Mean (MDA-MB-231 [3]; 50 mg/kg orally once daily, Day 8): 295 mm^3
- Tumor volume, Mean (MDA-MB-231 [3]; 50 mg/kg orally once daily, Day 10): 368 mm^3
- Tumor volume, Mean (MDA-MB-231 [3]; 50 mg/kg orally once daily, Day 12): 463 mm^3
- Tumor volume, Mean (MDA-MB-231 [3]; 50 mg/kg orally once daily, Day 14): 716 mm^3
- Tumor volume, Mean (MDA-MB-231 [3]; 50 mg/kg orally once daily, Day 16): 875 mm^3
- Tumor volume, Mean (MDA-MB-231 [3]; 50 mg/kg orally once daily, Day 19): 1078 mm^3
- Tumor volume, Mean (MDA-MB-231 [3]; 50 mg/kg orally once daily, Day 21): 1397 mm^3
- Tumor volume, Mean (MDA-MB-231 [3]; 100 mg/kg orally once daily, Day 0): 88 mm^3
- Tumor volume, Mean (MDA-MB-231 [3]; 100 mg/kg orally once daily, Day 2): 126 mm^3
- Tumor volume, Mean (MDA-MB-231 [3]; 100 mg/kg orally once daily, Day 5): 186 mm^3
- Tumor volume, Mean (MDA-MB-231 [3]; 100 mg/kg orally once daily, Day 8): 290 mm^3
- Tumor volume, Mean (MDA-MB-231 [3]; 100 mg/kg orally once daily, Day 10): 363 mm^3
- Tumor volume, Mean (MDA-MB-231 [3]; 100 mg/kg orally once daily, Day 12): 458 mm^3
- Tumor volume, Mean (MDA-MB-231 [3]; 100 mg/kg orally once daily, Day 14): 652 mm^3
- Tumor volume, Mean (MDA-MB-231 [3]; 100 mg/kg orally once daily, Day 16): 782 mm^3
- Tumor volume, Mean (MDA-MB-231 [3]; 100 mg/kg orally once daily, Day 19): 933 mm^3
- Tumor volume, Mean (MDA-MB-231 [3]; 100 mg/kg orally once daily, Day 21): 1158 mm^3
- Histopathology of tumors compared to the vehicle (MDA-MB-231 [3]; [6]): dose-dependent decrease in tumor cells, increase in necrosis and decrease in blood vessel formation
- mean tumor volumes compared to the vehicle control on day 21 (MDA-MB-231 [3]; [6]): dose-dependent decreases
- changes in body weight versus the vehicle-treated group [4]: no significant changes
- growth inhibition (mean % inhibition of cell growth) (MDA-MB-231 [5]): 88.2%
- growth inhibition (mean % inhibition of cell growth) (HepG2): 28.1%
- growth inhibition (mean % inhibition of cell growth) (Mia-PaCa-2): 63.0%
